Assay results published in US8519004B2 (Repros Therapeutics Inc., priority 2005, dated 2013).
Counter-ions that a name gives are not always drawn.

Assays:
[1] = system: serum LH and FSH; details: during treatment
Protocol: (§1) Half of the men in each of the Androxal™ and placebo arms were randomized into cohorts that underwent in-clinic sessions on days 1 and 14 to determine pharmacokinetic parameters for Androxal™ as well as cyclical changes in testosterone. The placebo and Androxal™ doses were administered in a double blind fashion. The Androgel® cream was administered in an open label fashion. Half of the Androgel® patients underwent in-clinic sessions similar to the other patients in the study. Following the two week drug exposure patients were followed for an additional seven to ten days to determine the status of their testosterone levels.

[2] = Clinical chemistry and hematology parameters in male baboons; type: in vivo; details: for ALT/SGPT: changes over the treatment period / end of the study; for serum anion gap: day 12 and washout; for BUN and BUN/creatinine: during the study; for serum glucose: change with treatment; for serum carbon dioxide: day 12
Description: (§2) The samples analyzed were sera taken on the day of first treatment before being given test article (day 0), after 12 days of treatment (day 12) and 7 days after the last treatment (end or wash-out).

[3] = system: serum testosterone; assay: Serum testosterone in male baboons given Clomid, Enclomid or Zuclomid; type: in vivo; details: between day 12 and day 18 (washout)
Description: as §2

[4] = system: serum total testosterone
Protocol: as §1

[5] = 50 mg dose; placebo group ratio 1.07
Protocol: as §1

[6] = system: serum cholesterol; assay: Serum cholesterol in male baboons; type: in vivo; details: 1.5 mg/kg for 12 days
Description: as §2

[7] = following a single dose; cited from earlier work

Row | SMILES | serum levels of FSH [1] | serum levels of LH [1] | eosinophil count ([2]; 1.5 mg/kg for 12 days) | lymphocyte count ([2]; 1.5 mg/kg for 12 days) | red blood cell population ([2]; 1.5 mg/kg for 12 days) | serum creatinine ([2]; between day 0 and Day 12) | ALT/SGPT [2] | serum anion gap [2] | BUN and BUN/creatinine [2] | percent of granulocytes in the blood ([2]; very strong after the 7-day washout period) | change in total serum testosterone after cessation of treatment [3] | serum total testosterone in the follow-up period ([4]; 7-10 days after cessation of daily oral treatment) | changes in testosterone from baseline testosterone levels ([4]; all doses) | serum total testosterone in follow-up, highest dose compared to the high dose of AndroGel 1% ([4]; follow-up period, p=0.017, t-test) | DHT/TT ratio [5] | serum glucose [2] | serum carbon dioxide [2] | increase in serum cholesterol levels [6] | duration of residual blood levels [7]
1 | CCN(CC)CCOc1ccc(/C(=C(\Cl)c2ccccc2)c2ccccc2)cc1 [Enclomid, trans-clomiphene] | statistically increase | statistically significant increase | raising the counts of lymphocytes and eosinophiles | increase in lymphocyte count | substantive effects on the red blood cell population | no differences between serum creatinine values | within the normal range | raised this parameter towards normal values | altered | lowering the percent of granulocytes in the blood | significant drop in the level of total serum testosterone | remained high | statistically significant changes in testosterone | significantly higher | 0.83 |  |  |  | 
2 | CCN(CC)CCOc1ccc(C(=C(Cl)c2ccccc2)c2ccccc2)cc1 [Clomid, clomiphene citrate] |  |  |  |  |  |  | out of range low | lower values than the Enclomid group | altered |  |  |  |  |  |  | within the normal range | higher than reference values | slight increase | 
3 | CCN(CC)CCOc1ccc(/C(=C(/Cl)c2ccccc2)c2ccccc2)cc1 [Zuclomid, cis-clomiphene] |  |  |  |  | substantive effects on the red blood cell population |  | within the normal range | lower values than the Enclomid group |  |  |  |  |  |  |  | within the normal range | higher than reference values |  | in excess of one month
